Reference: PubChem BioAssay AID256 (DTP/NCI, 2004)
Where “and” joins values, the source holds several entries; their conditions need not be identical. Identical values can stand only once. Inconclusive results and toxic doses are left out.

System: CD2F1 mice, L1210 leukemia ip, survival T/C
Test: NCI In Vivo Anticancer Drug Screen. Data for tumor model L1210 Leukemia (intraperitoneal) in CD2F1 (CDF1) mice
Conditions: higher = longer survival
Procedure, shortened: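 Compound-dosed mice with transplantable tumor versus matched vehicle controls; endpoint ratio T/C reported.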

[1] = endpoint: mean survival time, dose: 100.0 mg/kg/injection, schedule: Q01DX009 (ip), vehicle: saline with Tween-80
[2] = endpoint: mean survival time, dose: 200.0 mg/kg/injection, schedule: Q01DX009 (ip), vehicle: saline with Tween-80
[3] = endpoint: mean survival time, dose: 400.0 mg/kg/injection, schedule: Q01DX009 (ip), vehicle: saline with Tween-80
[4] = endpoint: mean survival time, dose: 100.0 mg/kg/injection, schedule: Q04DX003 (ip), vehicle: saline
[5] = endpoint: mean survival time, dose: 200.0 mg/kg/injection, schedule: Q04DX003 (ip), vehicle: saline
[6] = endpoint: mean survival time, dose: 400.0 mg/kg/injection, schedule: Q04DX003 (ip), vehicle: saline
[7] = endpoint: mean survival time, dose: 100.0 mg/kg/injection, schedule: Q04DX003 (ip), vehicle: saline with Tween-80
[8] = endpoint: mean survival time, dose: 200.0 mg/kg/injection, schedule: Q04DX003 (ip), vehicle: saline with Tween-80
[9] = endpoint: mean survival time, dose: 400.0 mg/kg/injection, schedule: Q04DX003 (ip), vehicle: saline with Tween-80
[10] = endpoint: mean survival time, dose: 100.0 mg/kg/injection, schedule: Q01DX001 (ip), vehicle: saline
[11] = endpoint: mean survival time, dose: 200.0 mg/kg/injection, schedule: Q01DX001 (ip), vehicle: saline
[12] = endpoint: mean survival time, dose: 400.0 mg/kg/injection, schedule: Q01DX001 (ip), vehicle: saline

O=C1OC(c2ccccc2)(c2ccccc2)C(=O)N1c1ccc(Br)cc1
T/C (endpoint: median survival time, dose: 3.13 mg/kg/injection, schedule: Q04DX002 (ip), vehicle: saline with Tween-80): 100 % of control | T/C (endpoint: median survival time, dose: 6.25 mg/kg/injection, schedule: Q04DX002 (ip), vehicle: saline with Tween-80): 100 % of control | T/C (endpoint: median survival time, dose: 12.5 mg/kg/injection, schedule: Q04DX002 (ip), vehicle: saline with Tween-80): 111 % of control | T/C (endpoint: median survival time, dose: 25.0 mg/kg/injection, schedule: Q04DX002 (ip), vehicle: saline with Tween-80): 111 % of control | T/C (endpoint: median survival time, dose: 25.0 mg/kg/injection, schedule: Q04DX003 (ip), vehicle: saline with Tween-80): 94 % of control

CC(=O)/C=C/C=C\c1ccccc1
T/C [1]: 104 % of control | T/C [2]: 94 % of control | T/C [3]: 98 % of control

O=C1c2ccccc2C(=O)c2cc(S(=O)(=O)O)ccc21
T/C (endpoint: mean survival time, dose: 100.0 mg/kg/injection, schedule: Q01DX001 (ip), vehicle: Klucel (hydroxypropylcellulose) (HPC)): 104 % of control | T/C [1]: 98 % of control | T/C (endpoint: mean survival time, dose: 200.0 mg/kg/injection, schedule: Q01DX001 (ip), vehicle: Klucel (hydroxypropylcellulose) (HPC)): 96 % of control | T/C [2]: 90 % of control | T/C (endpoint: mean survival time, dose: 400.0 mg/kg/injection, schedule: Q01DX001 (ip), vehicle: Klucel (hydroxypropylcellulose) (HPC)): 104 % of control | T/C [3]: 90 % of control

CCOC(=O)Nc1cccnc1
T/C (endpoint: mean survival time, dose: 75.0 mg/kg/injection, schedule: Q01DX001 (ip), vehicle: saline with Tween-80): 104 % of control | T/C (endpoint: mean survival time, dose: 150.0 mg/kg/injection, schedule: Q01DX001 (ip), vehicle: saline with Tween-80): 98 % of control | T/C (endpoint: mean survival time, dose: 300.0 mg/kg/injection, schedule: Q01DX001 (ip), vehicle: saline with Tween-80): 106 % of control

Cc1cccc[n+]1CCCS(=O)(=O)[O-]
T/C [4]: 104 % of control | T/C [5]: 102 % of control | T/C [6]: 101 % of control

COc1cccc2c1C(=O)c1c(O)c3c(c(O)c1C2=O)C[C@@](O)(C(=O)COC(C)=O)C[C@@H]3OC1CC(N)C(O)C(C)O1 (stereo partly specified)
T/C (endpoint: mean survival time, dose: 3.0 mg/kg/injection, schedule: Q01DX009 (ip), vehicle: saline): 156 % of control | T/C (endpoint: mean survival time, dose: 3.0 mg/kg/injection, schedule: Q04DX003 (ip), vehicle: saline with Tween-80): 118 % of control

CC(=O)NS(=O)(=O)c1ccc(NC(=O)/C=C/C(=O)O)cc1
T/C [4]: 100 % of control | T/C [5]: 100 % of control | T/C [6]: 100 % of control

O=C1C=C(c2ccccc2)C(=O)C(c2ccccc2)=C1c1ccccc1
T/C (endpoint: mean survival time, dose: 100.0 mg/kg/injection, schedule: Q04DX002 (ip), vehicle: saline with Tween-80): 94 % of control | T/C (endpoint: mean survival time, dose: 200.0 mg/kg/injection, schedule: Q04DX002 (ip), vehicle: saline with Tween-80): 94 % of control | T/C (endpoint: mean survival time, dose: 400.0 mg/kg/injection, schedule: Q04DX002 (ip), vehicle: saline with Tween-80): 90 % of control

O=C1OC(=O)c2ccc([N+](=O)[O-])c3cccc1c23
T/C (endpoint: mean survival time, dose: 100.0 mg/kg/injection, schedule: Q04DX003 (ip), vehicle: Klucel (hydroxypropylcellulose) (HPC)): 98 % of control | T/C (endpoint: mean survival time, dose: 200.0 mg/kg/injection, schedule: Q04DX003 (ip), vehicle: Klucel (hydroxypropylcellulose) (HPC)): 106 % of control | T/C (endpoint: mean survival time, dose: 400.0 mg/kg/injection, schedule: Q04DX003 (ip), vehicle: Klucel (hydroxypropylcellulose) (HPC)): 96 % of control

Clc1c(Cl)c(Cl)c(C(c2c(Cl)c(Cl)c(Cl)c(Cl)c2Cl)c2c(Cl)c(Cl)c(Cl)c(Cl)c2Cl)c(Cl)c1Cl
T/C [7]: 98 % of control | T/C [8]: 98 % of control | T/C [9]: 110 % of control

Nc1nc(F)nc2c1ncn2C1OC(CO)C(O)C1O (stereo unspecified)
T/C (endpoint: mean survival time, dose: 100.0 mg/kg/injection, schedule: Q01DX001 (ip), vehicle: other): 105 % of control | T/C (endpoint: mean survival time, dose: 111.0 mg/kg/injection, schedule: Q01DX009 (ip), vehicle: saline with Tween-80): 187 % of control | T/C (endpoint: mean survival time, dose: 133.0 mg/kg/injection, schedule: Q01DX005 (ip), vehicle: saline with Tween-80): 154 % of control | T/C (endpoint: mean survival time, dose: 133.0 mg/kg/injection, schedule: Q01DX009 (ip), vehicle: saline with Tween-80): 227 % of control and 276 % of control | T/C (endpoint: mean survival time, dose: 156.0 mg/kg/injection, schedule: Q01DX009 (ip), vehicle: saline with Tween-80): 393 % of control | T/C (endpoint: mean survival time, dose: 178.0 mg/kg/injection, schedule: Q01DX005 (ip), vehicle: saline with Tween-80): 179 % of control | T/C (endpoint: mean survival time, dose: 178.0 mg/kg/injection, schedule: Q01DX009 (ip), vehicle: saline with Tween-80): 473 % of control | T/C (endpoint: mean survival time, dose: 200.0 mg/kg/injection, schedule: Q01DX001 (ip), vehicle: other): 109 % of control | T/C [2]: 563 % of control | T/C (endpoint: mean survival time, dose: 222.0 mg/kg/injection, schedule: Q01DX009 (ip), vehicle: saline with Tween-80): 333 % of control | T/C (endpoint: mean survival time, dose: 400.0 mg/kg/injection, schedule: Q01DX001 (ip), vehicle: other): 105 % of control

COc1ccc(-c2c(C(=O)O)cc(O)c3cc(OC)c(OC)cc23)cc1OC
T/C [10]: 97 % of control | T/C [11]: 97 % of control | T/C [12]: 92 % of control

O=C1C=C(SCCO)C(=O)c2ccccc21
T/C (endpoint: mean survival time, dose: 0.63 mg/kg/injection, schedule: Q01DX009 (ip), vehicle: saline sonified): 91 % of control | T/C (endpoint: mean survival time, dose: 1.25 mg/kg/injection, schedule: Q01DX009 (ip), vehicle: saline sonified): 94 % of control | T/C (endpoint: mean survival time, dose: 1.25 mg/kg/injection, schedule: Q04DX003 (ip), vehicle: saline with Tween-80): 92 % of control | T/C (endpoint: mean survival time, dose: 2.5 mg/kg/injection, schedule: Q01DX009 (ip), vehicle: saline sonified): 105 % of control | T/C (endpoint: mean survival time, dose: 2.5 mg/kg/injection, schedule: Q04DX003 (ip), vehicle: saline with Tween-80): 90 % of control

Cc1ccc(OCC2CO2)cc1 (stereo unspecified)
T/C [10]: 104 % of control | T/C [11]: 95 % of control | T/C [12]: 102 % of control

CN1C2CCC1CC(O)C2 (stereo unspecified)
T/C (endpoint: mean survival time, dose: 100.0 mg/kg/injection, schedule: Q04DX002 (ip), vehicle: saline): 109 % of control | T/C (endpoint: mean survival time, dose: 200.0 mg/kg/injection, schedule: Q04DX002 (ip), vehicle: saline): 109 % of control | T/C (endpoint: mean survival time, dose: 400.0 mg/kg/injection, schedule: Q04DX002 (ip), vehicle: saline): 97 % of control

CCOC(=O)c1cnc(N(C)C)nc1SC(=N)N
T/C (endpoint: mean survival time, dose: 50.0 mg/kg/injection, schedule: Q01DX009 (ip), vehicle: saline): 102 % of control | T/C (endpoint: mean survival time, dose: 100.0 mg/kg/injection, schedule: Q01DX009 (ip), vehicle: saline): 118 % of control | T/C [4]: 106 % of control | T/C [5]: 91 % of control

CC(C)OC(=O)Nc1cc(F)cc(C(F)(F)F)c1F
T/C [1]: 94 % of control | T/C [2]: 97 % of control | T/C [3]: 97 % of control

CC(C)C(C)/C=C\C(C)C1CCC2C3=CC=C4CC(OC(=O)c5ccccc5)CCC4(C)C3=CCC21C (stereo unspecified)
T/C (endpoint: mean survival time, dose: 50.0 mg/kg/injection, schedule: Q01DX009 (ip), vehicle: Klucel (hydroxypropylcellulose) (HPC)): 93 % of control | T/C (endpoint: mean survival time, dose: 100.0 mg/kg/injection, schedule: Q01DX009 (ip), vehicle: Klucel (hydroxypropylcellulose) (HPC)): 110 % of control | T/C (endpoint: mean survival time, dose: 200.0 mg/kg/injection, schedule: Q01DX009 (ip), vehicle: Klucel (hydroxypropylcellulose) (HPC)): 96 % of control

Cc1ccccc1N=Nc1ccc(O)cc1
T/C (endpoint: mean survival time, dose: 50.0 mg/kg/injection, schedule: Q01DX009 (ip), vehicle: saline with Tween-80): 105 % of control | T/C (endpoint: mean survival time, dose: 100.0 mg/kg/injection, schedule: Q01DX001 (ip), vehicle: saline with Tween-80): 103 % of control | T/C [1]: 100 % of control | T/C (endpoint: mean survival time, dose: 200.0 mg/kg/injection, schedule: Q01DX001 (ip), vehicle: saline with Tween-80): 92 % of control | T/C [2]: 103 % of control

O=C(O)c1c(Cl)c(Cl)c(C(=O)O)c(Cl)c1Cl
T/C [7]: 96 % of control | T/C [8]: 96 % of control | T/C [9]: 94 % of control

CC(C(=O)O)C1CCC2C3CC=C4CC(O)CCC4(C)C3CCC12C (stereo unspecified)
T/C [7]: 99 % of control | T/C [8]: 100 % of control | T/C [9]: 100 % of control

O=C(Nc1ccccc1Cl)c1ccc([N+](=O)[O-])cc1
T/C [1]: 94 % of control | T/C [7]: 96 % of control | T/C [2]: 97 % of control | T/C [8]: 96 % of control | T/C [3]: 97 % of control | T/C [9]: 93 % of control

N#CCC(=O)N/N=C/c1ccccc1
T/C [1]: 91 % of control | T/C [2]: 86 % of control

ClC1(Cl)C2CCCCC21 (stereo unspecified)
T/C (endpoint: mean survival time, dose: 50.0 mg/kg/injection, schedule: Q01DX009 (ip), vehicle: saline sonified): 98 % of control | T/C (endpoint: mean survival time, dose: 100.0 mg/kg/injection, schedule: Q01DX009 (ip), vehicle: saline sonified): 98 % of control | T/C [7]: 98 % of control | T/C (endpoint: mean survival time, dose: 200.0 mg/kg/injection, schedule: Q01DX009 (ip), vehicle: saline sonified): 97 % of control | T/C [8]: 97 % of control

OC[C@@H]1CCCN2CCCC[C@H]12
T/C (endpoint: mean survival time, dose: 25.0 mg/kg/injection, schedule: Q04DX003 (ip), vehicle: saline): 100 % of control | T/C (endpoint: mean survival time, dose: 50.0 mg/kg/injection, schedule: Q04DX003 (ip), vehicle: saline): 107 % of control | T/C [4]: 105 % of control
